Test results: PubChem BioAssay (NCI)
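Step 1: Grow cells in 96-well plates. Step 2: Expose to compound for 48 hours at 5 concentrations. Step 3: Interpolate endpoints linearly; if unreached, use highest concentration. TGI denotes the concentration required for complete inhibition of growth.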

How the values were obtained:
Test in all cases: NCI tumour cell line growth inhibition, 48 h
[1] = tested on: 786-0 renal
[2] = tested on: A498 renal
[3] = tested on: A549 NSCLC
[4] = tested on: ACHN renal
[5] = tested on: BT-549 breast
[6] = tested on: CAKI-1 renal
[7] = tested on: CCRF-CEM leukemia
[8] = tested on: COLO 205 colon
[9] = tested on: EKVX NSCLC
[10] = tested on: HCT-116 colon
[11] = tested on: HCT-15 colon
[12] = tested on: HOP-62 NSCLC
[13] = tested on: HOP-92 NSCLC
[14] = tested on: HS 578T breast
[15] = tested on: HT29 colon
[16] = tested on: IGROV1 ovarian
[17] = tested on: K-562 leukemia
[18] = tested on: KM12 colon
[19] = tested on: LOX IMVI melanoma
[20] = tested on: M14 melanoma
[21] = tested on: MALME-3M melanoma
[22] = tested on: MCF7 breast
[23] = tested on: MDA-MB-231 breast
[24] = tested on: MDA-MB-435
[25] = tested on: MDA-N
[26] = tested on: MOLT-4 leukemia
[27] = tested on: NCI-H226 lung
[28] = tested on: NCI-H23 lung
[29] = tested on: NCI-H460 lung
[30] = tested on: NCI-H522 lung
[31] = tested on: NCI/ADR-RES ovarian
[32] = tested on: OVCAR-3 ovarian
[33] = tested on: OVCAR-4 ovarian
[34] = tested on: OVCAR-5 ovarian
[35] = tested on: OVCAR-8 ovarian
[36] = tested on: PC-3 prostate
[37] = tested on: RPMI-8226 leukemia
[38] = tested on: RXF 393 renal
[39] = tested on: SF-268 CNS
[40] = tested on: SF-295 CNS
[41] = tested on: SF-539 CNS
[42] = tested on: SK-MEL-2 melanoma
[43] = tested on: SK-MEL-5 melanoma
[44] = tested on: SK-OV-3 ovarian
[45] = tested on: SNB-19 CNS
[46] = tested on: SNB-75 CNS
[47] = tested on: SR leukemia
[48] = tested on: SW-620 colon
[49] = tested on: T-47D breast
[50] = tested on: TK-10 renal
[51] = tested on: U251 CNS
[52] = tested on: UACC-257 melanoma
[53] = tested on: UACC-62 melanoma
[54] = tested on: UO-31 renal
[55] = tested on: HCC-2998 colon
[56] = tested on: HL-60(TB) leukemia
[57] = tested on: SK-MEL-28 melanoma
[58] = tested on: SN12C renal
[59] = tested on: DU-145 prostate

## CN1CCOC1c1ccccc1O (configuration not stated)
[1]
  TGI: > 100 µM
[2]
  TGI: > 100 µM
[3]
  TGI: > 100 µM
[4]
  TGI: > 100 µM
[5]
  TGI: > 100 µM
[6]
  TGI: > 100 µM
[7]
  TGI: > 100 µM
[8]
  TGI: > 100 µM
[9]
  TGI: > 100 µM
[10]
  TGI: > 100 µM
[11]
  TGI: > 100 µM
[12]
  TGI: > 100 µM
[13]
  TGI: > 100 µM
[14]
  TGI: > 100 µM
[15]
  TGI: > 100 µM
[16]
  TGI: > 100 µM
[17]
  TGI: > 100 µM
[18]
  TGI: > 100 µM
[19]
  TGI: > 100 µM
[20]
  TGI: > 100 µM
[21]
  TGI: > 100 µM
[22]
  TGI: > 100 µM
[23]
  TGI: > 100 µM
[24]
  TGI: > 100 µM
[25]
  TGI: > 100 µM
[26]
  TGI: > 100 µM
[27]
  TGI: > 100 µM
[28]
  TGI: > 100 µM
[29]
  TGI: > 100 µM
[30]
  TGI: > 100 µM
[31]
  TGI: > 100 µM
[32]
  TGI: > 100 µM
[33]
  TGI: > 100 µM
[34]
  TGI: > 100 µM
[35]
  TGI: > 100 µM
[36]
  TGI: > 100 µM
[37]
  TGI: > 100 µM
[38]
  TGI: > 100 µM
[39]
  TGI: > 100 µM
[40]
  TGI: > 100 µM
[41]
  TGI: > 100 µM
[42]
  TGI: > 100 µM
[43]
  TGI: > 100 µM
[44]
  TGI: > 100 µM
[45]
  TGI: > 100 µM
[46]
  TGI: > 100 µM
[47]
  TGI: > 100 µM
[48]
  TGI: > 100 µM
[49]
  TGI: > 100 µM
[50]
  TGI: > 100 µM
[51]
  TGI: > 100 µM
[52]
  TGI: > 100 µM
[53]
  TGI: > 100 µM
[54]
  TGI: > 100 µM

## CC(=O)NC1C(OCc2ccccc2)OC(CO)C(O)C1OCC(=O)N[C@@H](C)C(=O)N[C@H](CCC(=O)NCCCNc1c2ccccc2nc2cccc([N+](=O)[O-])c12)C(N)=O (some centres not stated)
[1]
  TGI: 0.0795 µM
[2]
  TGI: 0.944 µM
[4]
  TGI: 0.115 µM
[5]
  TGI: 0.287 µM
[6]
  TGI: 0.334 µM
[7]
  TGI: > 100 µM
[8]
  TGI: 0.0185 µM
[9]
  TGI: 0.264 µM
[55]
  TGI: 0.0301 µM
[10]
  TGI: 0.034 µM
[11]
  TGI: 0.376 µM
[56]
  TGI: > 49.7 µM
[12]
  TGI: 0.576 µM
[14]
  TGI: 0.675 µM
[15]
  TGI: 0.199 µM
[16]
  TGI: 0.606 µM
[17]
  TGI: > 39.8 µM
[18]
  TGI: 0.397 µM
[19]
  TGI: 0.259 µM
[20]
  TGI: 0.209 µM
[21]
  TGI: 0.129 µM
[22]
  TGI: 2.42 µM
[23]
  TGI: 0.45 µM
[24]
  TGI: 0.132 µM
[25]
  TGI: 0.102 µM
[26]
  TGI: 11 µM
[27]
  TGI: 0.287 µM
[28]
  TGI: 0.0835 µM
[29]
  TGI: 0.0609 µM
[30]
  TGI: 0.0383 µM
[32]
  TGI: 0.566 µM
[33]
  TGI: 0.267 µM
[34]
  TGI: 5.8 µM
[35]
  TGI: 1.71 µM
[36]
  TGI: 0.493 µM
[37]
  TGI: 0.242 µM
[40]
  TGI: 1.33 µM
[41]
  TGI: 0.279 µM
[57]
  TGI: 0.751 µM
[43]
  TGI: 0.0383 µM
[44]
  TGI: 0.99 µM
[58]
  TGI: 0.327 µM
[45]
  TGI: 0.552 µM
[46]
  TGI: 0.362 µM
[47]
  TGI: 46.7 µM
[49]
  TGI: 0.25 µM
[50]
  TGI: 1.55 µM
[51]
  TGI: 4.46 µM
[52]
  TGI: 0.177 µM
[53]
  TGI: 0.0601 µM
[54]
  TGI: 0.341 µM

## O=C1c2ccccc2C(=O)N1n1c(Cc2ccc([N+](=O)[O-])cc2)n[nH]c1=O
[1]
  TGI: > 100 µM
[2]
  TGI: > 100 µM
[3]
  TGI: > 100 µM
[4]
  TGI: > 100 µM
[5]
  TGI: > 100 µM
[6]
  TGI: > 100 µM
[59]
  TGI: > 100 µM
[55]
  TGI: > 100 µM
[10]
  TGI: > 100 µM
[11]
  TGI: > 100 µM
[12]
  TGI: > 100 µM
[13]
  TGI: > 100 µM
[15]
  TGI: > 100 µM
[16]
  TGI: > 100 µM
[17]
  TGI: > 100 µM
[18]
  TGI: > 100 µM
[21]
  TGI: > 100 µM
[22]
  TGI: > 100 µM
[23]
  TGI: > 100 µM
[24]
  TGI: > 100 µM
[25]
  TGI: > 100 µM
[26]
  TGI: > 100 µM
[27]
  TGI: > 100 µM
[28]
  TGI: > 100 µM
[29]
  TGI: > 100 µM
[30]
  TGI: > 100 µM
[31]
  TGI: > 100 µM
[32]
  TGI: > 100 µM
[34]
  TGI: > 100 µM
[35]
  TGI: > 100 µM
[36]
  TGI: > 100 µM
[37]
  TGI: > 100 µM
[38]
  TGI: > 100 µM
[39]
  TGI: > 100 µM
[40]
  TGI: > 100 µM
[41]
  TGI: > 100 µM
[42]
  TGI: > 100 µM
[57]
  TGI: > 100 µM
[43]
  TGI: > 100 µM
[58]
  TGI: > 100 µM
[45]
  TGI: > 100 µM
[46]
  TGI: > 100 µM
[47]
  TGI: > 100 µM
[48]
  TGI: > 100 µM
[49]
  TGI: > 100 µM
[50]
  TGI: > 100 µM
[51]
  TGI: > 100 µM
[52]
  TGI: > 100 µM
[53]
  TGI: 89.1 µM
[54]
  TGI: > 100 µM

## COc1cc(OC)cc(C(=O)CC(=O)c2cc(OC)cc(OC)c2)c1
[1]
  TGI: > 100 µM
[2]
  TGI: > 100 µM
[3]
  TGI: > 100 µM
[4]
  TGI: > 100 µM
[5]
  TGI: > 100 µM
[7]
  TGI: > 100 µM
[8]
  TGI: > 100 µM
[59]
  TGI: > 100 µM
[9]
  TGI: > 100 µM
[55]
  TGI: > 100 µM
[10]
  TGI: > 100 µM
[11]
  TGI: > 100 µM
[56]
  TGI: > 100 µM
[12]
  TGI: > 100 µM
[13]
  TGI: > 100 µM
[14]
  TGI: > 100 µM
[16]
  TGI: > 100 µM
[17]
  TGI: > 100 µM
[18]
  TGI: > 100 µM
[20]
  TGI: > 100 µM
[21]
  TGI: > 100 µM
[22]
  TGI: > 100 µM
[24]
  TGI: > 100 µM
[25]
  TGI: > 100 µM
[26]
  TGI: > 100 µM
[27]
  TGI: > 100 µM
[28]
  TGI: > 100 µM
[29]
  TGI: > 100 µM
[31]
  TGI: > 100 µM
[32]
  TGI: > 100 µM
[34]
  TGI: > 100 µM
[35]
  TGI: > 100 µM
[36]
  TGI: > 100 µM
[37]
  TGI: > 100 µM
[38]
  TGI: > 100 µM
[39]
  TGI: > 100 µM
[40]
  TGI: > 100 µM
[41]
  TGI: > 100 µM
[57]
  TGI: > 100 µM
[43]
  TGI: > 100 µM
[44]
  TGI: > 100 µM
[58]
  TGI: > 100 µM
[45]
  TGI: > 100 µM
[46]
  TGI: > 100 µM
[47]
  TGI: > 100 µM
[48]
  TGI: > 100 µM
[49]
  TGI: > 100 µM
[50]
  TGI: > 100 µM
[51]
  TGI: > 100 µM
[52]
  TGI: > 100 µM
[53]
  TGI: > 100 µM
[54]
  TGI: > 100 µM
